Consider ten compounds from PMC3305890, “Synthesis and pharmacological characterization of potent, selective, and orally bioavailable isoindoline class dipeptidyl peptidase IV inhibitors” (Organic and Medicinal Chemistry Letters, 2011).

A short description of data set [1]: Metabolic stability in rat liver microsomes. The data set is classed as in vitro ADME. Conditions: 5 μM. The protocol: (§1) The incubation mixture containing 0.25 mg of rat or human liver microsomes was preincubated with an NADPH-generating system for 5 min at 37°C. The reaction was started by the addition of 5 μL of a DMSO solution containing the test compound (5 μM). At t = 0 and at two additional time points between 0 and 30 min, aliquots (100 μL) were removed and added to termination mixtures (CH3CN). Proteins were sedimented by centrifugation and an aliquot of the supernatant was analyzed by LC/MS/MS.
(§2) In determinations of the in vitrot1/2, the analyte/ISTD peak area ratio was converted to percentage of drug remaining by assigning a value of 100% to the peak area ratio at t = 0. The slope of the regression line fitted to the log (percentage remaining) versus incubation time relationship (-k) was used in the conversion of raw data to the in vitrot1/2 value. In vitro CLint was calculated using the following formula.
(§3) CLint=0.693/Invitro t1/2×mL incubation/mg microsomes×45 mg microsomes/mg liver×[…] (b.w.)
On the technique in general: Microsomes from liver hold many membrane-bound enzymes, among them those of drug oxidation.

The test system of another data set is CYP2B. As to the kind of experiment: CYP2B enzyme induction in rat hepatocytes (7-pentoxyresorufin O-dealkylation). The class given is in vitro ADME. Conditions: rat hepatocytes, 1, 10, 50 μM, 2 days. The protocol:
(§4) Enzyme induction was evaluated as follows: Hepatocytes isolated from male SD rats were maintained in culture for 1 day before treatment with the test compound or P-450 inducers. The cells were treated with the test compound (1, 10, 50 μM), β-naphthoflavone (10 μM, CYP1A inducer), phenobarbital (50 μM, CYP2B inducer), dexamethasone (10 μM, CYP3A inducer), or vehicle (0.1% DMSO final volume; used as negative control) for 2 days.
(§5) Induction of CYP1A, CYP2B, and CYP3A enzymes was determined based on measurements of 7-ethoxyresorufin O-dealkylation, 7-pentoxyresorufin O-dealkylation, and testosterone 6β-hydroxylation, respectively. Assays were started by the addition of Krebs-Henseleit buffer containing 8 μM 7-ethoxyresorufin, 10 μM 7-pentoxyresorufin, or 250 μM testosterone at a volume of 100 μL per well. After incubation at 37°C for 30 min, aliquots were removed and analyzed by fluorometry (an excitation wavelength of 538 nm and an emission wavelength of 590 nm) or LC/MS/MS to determine the quantities of metabolites formed. Any test compound causing a dose-dependent change equal to or greater than 10% of the positive control (see formula below) was considered an enzyme inducer.
(§6) % positive control=(activity of test - compound treated cells - activity of negative control)/(activity of positive control - activity of negative control)×100

The next data set concerns the target Human DPP-9 (Homo sapiens, UniProt Q86TI2). As to the kind of experiment: In vitro assay for inhibition of DPP-9.
The next data set concerns CYP3A. As to the kind of experiment: CYP3A enzyme induction in rat hepatocytes (testosterone 6β-hydroxylation). The data set is classed as in vitro ADME. Conditions: rat hepatocytes, 1, 10, 50 μM, 2 days. The protocol:
as §4, §5, §6

A short description of data set [2]: Metabolic stability in human liver microsomes. The class given is in vitro ADME. To be noted: read-out: CL'int Human (converted). As for the experimental part: as §1, §2, §3
For the next data set, the system named is CYP1A. The data set can be described thus: CYP1A enzyme induction in rat hepatocytes (7-ethoxyresorufin O-dealkylation). Conditions: rat hepatocytes, 1, 10, 50 μM, 2 days. The class given is in vitro ADME. The protocol: as §4, §5, §6
A further data set addresses Human recombinant DPP-IV (Homo sapiens, UniProt P27487). The data set can be described thus: In vitro assay for DPP-IV inhibition (H-Gly-Pro-AMC fluorescence).
In a further data set the target is Human DPP-8 (Homo sapiens, UniProt Q6V1X1). As to the kind of experiment: In vitro assay for inhibition of DPP-8.
Sequence of Human DPP-8 (Q6V1X1 whole entry): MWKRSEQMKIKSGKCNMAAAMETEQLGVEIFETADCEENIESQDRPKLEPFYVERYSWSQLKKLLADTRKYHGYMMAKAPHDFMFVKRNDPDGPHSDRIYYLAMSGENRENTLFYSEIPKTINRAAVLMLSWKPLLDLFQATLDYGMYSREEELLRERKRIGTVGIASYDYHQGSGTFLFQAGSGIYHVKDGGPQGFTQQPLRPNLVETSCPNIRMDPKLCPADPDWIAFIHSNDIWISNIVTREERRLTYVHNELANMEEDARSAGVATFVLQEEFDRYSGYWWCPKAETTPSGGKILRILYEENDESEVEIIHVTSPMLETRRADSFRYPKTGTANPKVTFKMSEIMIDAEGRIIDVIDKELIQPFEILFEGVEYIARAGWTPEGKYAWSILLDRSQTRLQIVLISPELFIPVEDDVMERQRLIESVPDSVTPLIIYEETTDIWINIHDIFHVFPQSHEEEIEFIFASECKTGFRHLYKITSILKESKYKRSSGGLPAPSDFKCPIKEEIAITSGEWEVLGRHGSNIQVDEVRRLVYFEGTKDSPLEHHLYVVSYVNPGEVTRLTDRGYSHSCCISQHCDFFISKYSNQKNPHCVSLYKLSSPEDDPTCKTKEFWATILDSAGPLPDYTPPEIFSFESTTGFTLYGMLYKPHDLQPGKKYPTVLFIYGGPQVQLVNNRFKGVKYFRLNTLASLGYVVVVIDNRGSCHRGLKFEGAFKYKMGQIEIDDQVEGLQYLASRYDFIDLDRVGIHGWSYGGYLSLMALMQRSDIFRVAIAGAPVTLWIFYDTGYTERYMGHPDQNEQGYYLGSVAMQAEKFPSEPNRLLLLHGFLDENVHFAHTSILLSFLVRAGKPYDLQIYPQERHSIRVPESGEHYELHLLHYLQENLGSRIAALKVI

Bounds are passed on as bounds.

Sequence of Human recombinant DPP-IV (P27487 whole entry): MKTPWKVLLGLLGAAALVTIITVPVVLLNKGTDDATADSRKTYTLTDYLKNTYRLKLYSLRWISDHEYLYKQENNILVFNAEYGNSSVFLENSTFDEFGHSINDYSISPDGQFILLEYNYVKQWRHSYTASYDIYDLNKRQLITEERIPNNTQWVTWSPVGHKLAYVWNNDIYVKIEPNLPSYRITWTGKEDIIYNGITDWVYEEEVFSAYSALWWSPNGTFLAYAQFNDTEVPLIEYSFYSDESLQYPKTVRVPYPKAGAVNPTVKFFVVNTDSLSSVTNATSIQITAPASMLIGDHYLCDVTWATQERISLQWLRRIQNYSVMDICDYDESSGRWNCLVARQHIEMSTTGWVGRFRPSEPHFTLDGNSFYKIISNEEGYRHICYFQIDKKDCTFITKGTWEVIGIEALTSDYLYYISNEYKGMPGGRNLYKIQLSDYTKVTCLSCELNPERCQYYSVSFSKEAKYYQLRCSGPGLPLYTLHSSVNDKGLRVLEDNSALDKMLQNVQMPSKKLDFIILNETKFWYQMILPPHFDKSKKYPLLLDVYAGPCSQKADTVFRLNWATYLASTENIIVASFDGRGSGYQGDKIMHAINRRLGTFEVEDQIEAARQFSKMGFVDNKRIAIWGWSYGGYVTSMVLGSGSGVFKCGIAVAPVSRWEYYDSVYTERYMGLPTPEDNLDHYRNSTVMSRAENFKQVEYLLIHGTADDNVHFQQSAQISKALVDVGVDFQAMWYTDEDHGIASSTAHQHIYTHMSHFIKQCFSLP
Sequence of Human DPP-9 (Q86TI2 whole entry): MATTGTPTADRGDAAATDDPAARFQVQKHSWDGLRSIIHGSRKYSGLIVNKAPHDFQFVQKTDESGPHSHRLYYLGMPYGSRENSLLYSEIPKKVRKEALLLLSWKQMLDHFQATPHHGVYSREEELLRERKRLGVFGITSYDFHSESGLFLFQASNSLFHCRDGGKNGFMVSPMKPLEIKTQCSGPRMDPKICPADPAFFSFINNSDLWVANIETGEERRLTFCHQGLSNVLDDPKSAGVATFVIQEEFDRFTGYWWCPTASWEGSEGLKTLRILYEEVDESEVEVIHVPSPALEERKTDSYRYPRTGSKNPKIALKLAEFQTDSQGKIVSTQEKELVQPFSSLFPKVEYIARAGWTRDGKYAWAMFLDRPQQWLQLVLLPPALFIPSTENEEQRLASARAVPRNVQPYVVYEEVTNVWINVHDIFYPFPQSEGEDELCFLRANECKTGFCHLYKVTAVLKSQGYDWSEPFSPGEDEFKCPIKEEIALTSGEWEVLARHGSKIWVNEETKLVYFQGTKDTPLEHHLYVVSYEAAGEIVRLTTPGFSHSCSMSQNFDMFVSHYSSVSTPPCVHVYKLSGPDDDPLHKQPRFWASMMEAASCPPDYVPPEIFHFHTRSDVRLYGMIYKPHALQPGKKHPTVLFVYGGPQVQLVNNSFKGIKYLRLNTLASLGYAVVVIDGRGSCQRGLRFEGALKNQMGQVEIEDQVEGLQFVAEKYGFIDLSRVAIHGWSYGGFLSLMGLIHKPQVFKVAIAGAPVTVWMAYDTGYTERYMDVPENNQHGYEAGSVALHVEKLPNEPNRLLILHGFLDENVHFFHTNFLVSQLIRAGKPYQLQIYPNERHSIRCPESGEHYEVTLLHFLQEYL
Description for Human DPP-8: (§7) Thus, isoindolines were synthesized as shown in Figure 1 and evaluated in vitro for their ability to inhibit human recombinant DPP-IV and were also screened for their selectivity over DPP-8/9 by a fluorescence assay using glycyl-proline 7-amino-4-methylcoumarin (H-Gly-Pro-AMC).
(§8) Human DPP-8 and DPP-9 were expressed in baculovirus-infected Sf9 insect cells and purified using His-tagged protein purification resins. Inhibition of DPP-8 and -9 activities was determined as described above. 10 μL of appropriately diluted aqueous solutions of the test compounds was added to 96-well microtiter plates, followed by the addition of 50 μL of 1.0 mM H-Gly-Pro-AMC in buffer solution (50 mM HEPES, 0.1 mg/mL BSA, pH 8.0). The reaction was initiated by the addition of 40 μL of the enzyme solution diluted in the assay buffer.
Description for Human DPP-9: as §7, §8
Description for Human recombinant DPP-IV: Inhibition of DPP-IV activity was determined by measuring the rate of hydrolysis of a surrogate substrate, H-Gly-Pro-7-amino-4-methylcoumarin (H-Gly-Pro-AMC). Human recombinant DPP-IV was purchased from R&D Systems, Minneapolis, MN. 10 μL of appropriately diluted solutions of the test compounds in water was added to 96-well microtiter plates, followed by the addition of 40 μL of DPP-IV diluted in assay buffer (25 mM HEPES, 140 mM NaC1, 0.1 mg/mL BSA, pH 7.8). After a 30-min preincubation at room temperature, the reaction was initiated by the addition of 50 μL of the assay buffer containing 0.2 mM H-Gly-Pro-AMC.

In general, IC50 refers to the midpoint of a concentration-inhibition curve. On to `CC(C)(CC(=O)N1Cc2ccccc2C1)NCC(=O)N1CCC[C@H]1C#N` [Compound 4a, (S)-1-(2-(4-(Isoindolin-2-yl)-2-methyl-4-oxobutan-2-ylamino)acetyl)pyrrolidine-2-carbonitrile], for which, in data set [1], the “CL'int Rat” value amounted to 21.7 mL/min/kg. Further, in the data set on CYP2B, the “Enzyme induction (rat) CYP2B” value is listed as “+ (Any test compound causing a dose-dependent change equal to or greater than 10% of the positive control (see formula below) was considered an enzyme inducer)”. This compound registered an IC50 at Human DPP-9 of over 100 µM. The “Enzyme induction (rat) CYP3A” value in the data set with CYP3A is recorded as “+ (Any test compound causing a dose-dependent change equal to or greater than 10% of the positive control (see formula below) was considered an enzyme inducer)”. Besides, the CLint scaled at 5 μM in data set [2] is 3.33 mL/min/kg. Further, the “Enzyme induction (rat) CYP1A” value with CYP1A was “+ (Any test compound causing a dose-dependent change equal to or greater than 10% of the positive control (see formula below) was considered an enzyme inducer)”.
For the compound `CC(C)(CC(=O)N1Cc2ccc(F)cc2C1)NCC(=O)N1CCC[C@H]1C#N` [Compound 4c, (S)-1-(2-(4-(5-Fluoroisoindolin-2-yl)-2-methyl-4-oxobutan-2-ylamino)acetyl)pyrrolidine-2-carbonitrile], in data set [1], the “CL'int Rat” value came to 43.3 mL/min/kg. In addition, in the data set on CYP2B, the “Enzyme induction (rat) CYP2B” value was “+ (Any test compound causing a dose-dependent change equal to or greater than 10% of the positive control (see formula below) was considered an enzyme inducer)”. The IC50 was over 100 µM against Human DPP-9, 0.0019 µM on Human recombinant DPP-IV and over 100 µM on Human DPP-8. Besides, the CLint scaled at 5 μM in data set [2] is 80 mL/min/kg.
For `CC(C)(CC(=O)N1Cc2ccc(Br)cc2C1)NCC(=O)N1CCC[C@H]1C#N` [Compound 4d, (S)-1-(2-(4-(5-Bromoisoindolin-2-yl)-2-methyl-4-oxobutan-2-ylamino)acetyl)pyrrolidine-2-carbonitrile], the “Enzyme induction (rat) CYP2B” value with CYP2B is listed as “+ (Any test compound causing a dose-dependent change equal to or greater than 10% of the positive control (see formula below) was considered an enzyme inducer)”. Further, the figures for the IC50 against Human DPP-9, on Human recombinant DPP-IV and against Human DPP-8 were over 100 µM, 0.003 µM and 36 µM, respectively.
The like results for `CC(C)(CC(=O)N1Cc2ccc(Cl)cc2C1)NCC(=O)N1CCC[C@H]1C#N` [Compound 4e, (S)-1-(2-(4-(5-Chloroisoindolin-2-yl)-2-methyl-4-oxobutan-2-ylamino)acetyl)pyrrolidine-2-carbonitrile] were, in that order, “+ (Any test compound causing a dose-dependent change equal to or greater than 10% of the positive control (see formula below) was considered an enzyme inducer)”, over 100 µM, 0.0048 µM and 44 µM.
Turning to `CC(C)(CC(=O)N1Cc2ccc(C(F)(F)F)cc2C1)NCC(=O)N1CCC[C@H]1C#N` [Compound 4f, (S)-1-(2-(2-Methyl-4-oxo-4-(5-(trifluoromethyl)isoindolin-2-yl)butan-2-ylamino)acetyl)pyrrolidine-2-carbonitrile], the “Enzyme induction (rat) CYP2B” value in the data set with CYP2B is listed as “+ (Any test compound causing a dose-dependent change equal to or greater than 10% of the positive control (see formula below) was considered an enzyme inducer)”. Further, the IC50 against Human DPP-9 is over 100 µM; on Human recombinant DPP-IV, 0.0054 µM; against Human DPP-8 it was over 100 µM. The “Enzyme induction (rat) CYP1A” value in the data set on CYP1A is reported as “+ (Any test compound causing a dose-dependent change equal to or greater than 10% of the positive control (see formula below) was considered an enzyme inducer)”.
Consider `CC(C)(CC(=O)N1Cc2cccc(F)c2C1)NCC(=O)N1CCC[C@H]1C#N` [Compound 4g, (S)-1-(2-(4-(4-Fluoroisoindolin-2-yl)-2-methyl-4-oxobutan-2-ylamino)acetyl)pyrrolidine-2-carbonitrile], for which the “Enzyme induction (rat) CYP2B” value in the data set with CYP2B was “+ (Any test compound causing a dose-dependent change equal to or greater than 10% of the positive control (see formula below) was considered an enzyme inducer)”. In addition, the figures for the IC50 on Human DPP-9, at Human recombinant DPP-IV and on Human DPP-8 were over 100 µM, 0.0026 µM and over 100 µM, respectively.
`Cc1cccc2c1CN(C(=O)CC(C)(C)NCC(=O)N1CCC[C@H]1C#N)C2` [Compound 4h, (S)-1-(2-(2-Methyl-4-(4-methylisoindolin-2-yl)-4-oxobutan-2-ylamino)acetyl)pyrrolidine-2-carbonitrile]: the “Enzyme induction (rat) CYP2B” value in the data set on CYP2B is “+ (Any test compound causing a dose-dependent change equal to or greater than 10% of the positive control (see formula below) was considered an enzyme inducer)”. The figures for the IC50 against Human DPP-9, on Human recombinant DPP-IV and against Human DPP-8 were over 100 µM, 0.004 µM and over 100 µM, respectively.
For the compound `CC(C)(CC(=O)N1Cc2c(Cl)ccc(Cl)c2C1)NCC(=O)N1CCC[C@H]1C#N` [Compound 4i, (S)-1-(2-(4-(4,7-Dichloroisoindolin-2-yl)-2-methyl-4-oxobutan-2-ylamino)acetyl)pyrrolidine-2-carbonitrile], the IC50 is over 100 µM against Human DPP-9, 0.0026 µM on Human recombinant DPP-IV and over 100 µM on Human DPP-8. Further, the “Enzyme induction (rat) CYP1A” value with CYP1A is reported as “+ (Any test compound causing a dose-dependent change equal to or greater than 10% of the positive control (see formula below) was considered an enzyme inducer)”.
Take `CC(C)(CC(=O)N1Cc2cc(Cl)c(Cl)cc2C1)NCC(=O)N1CCC[C@H]1C#N` [Compound 4j, (S)-1-(2-(4-(5,6-Dichloroisoindolin-2-yl)-2-methyl-4-oxobutan-2-ylamino)acetyl)pyrrolidine-2-carbonitrile]: in the data set with CYP2B, the “Enzyme induction (rat) CYP2B” value is recorded as “+ (Any test compound causing a dose-dependent change equal to or greater than 10% of the positive control (see formula below) was considered an enzyme inducer)”. Further, the IC50 at Human DPP-9 was 74 µM; on Human recombinant DPP-IV, 0.022 µM; against Human DPP-8 it was over 100 µM. The “Enzyme induction (rat) CYP1A” value in the data set with CYP1A was “+ (Any test compound causing a dose-dependent change equal to or greater than 10% of the positive control (see formula below) was considered an enzyme inducer)”.
As to `COc1cc(C)cc2c1CN(C(=O)CC(C)(C)NCC(=O)N1CCC[C@H]1C#N)C2` [Compound 4k, (S)-1-(2-(4-(4-Methoxy-6-methylisoindolin-2-yl)-2-methyl-4-oxobutan-2-ylamino)acetyl)pyrrolidine-2-carbonitrile], the “Enzyme induction (rat) CYP2B” value in the data set with CYP2B is “+ (Any test compound causing a dose-dependent change equal to or greater than 10% of the positive control (see formula below) was considered an enzyme inducer)”. Moreover, the IC50 was over 100 µM against Human DPP-9, 0.016 µM on Human recombinant DPP-IV and over 100 µM against Human DPP-8.
